IC50 data for 27 molecules are collected here from patent publication US9403830B2, “Inhibitors of leukotriene production” (Boehringer Ingelheim International GmbH, priority 2012, dated 2016).

The IC50 is the concentration that gives 50% inhibition.

For experiment [1], the system named is LTB4 synthesis in human whole blood. Nature of the experiment: human whole blood (HWB) assay, inhibition of LTB4 production. It counts as cell-based. The following applies: heparinized human whole blood, calcimycin 20 μM stimulation, plasma LTB4. In short, it runs like this:
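Plasma LTB4, quantified by HTRF immunoassay, is the read-out after calcimycin challenge (20 μM final, 30 min, 37 °C) of heparinized whole blood that had been pretreated with compound for 15 min at 37 °C; values given as IC50.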

A further experiment deals with T1, human LTA4 hydrolase (Homo sapiens, UniProt P09960).
T1 sequence (P09960 1-611): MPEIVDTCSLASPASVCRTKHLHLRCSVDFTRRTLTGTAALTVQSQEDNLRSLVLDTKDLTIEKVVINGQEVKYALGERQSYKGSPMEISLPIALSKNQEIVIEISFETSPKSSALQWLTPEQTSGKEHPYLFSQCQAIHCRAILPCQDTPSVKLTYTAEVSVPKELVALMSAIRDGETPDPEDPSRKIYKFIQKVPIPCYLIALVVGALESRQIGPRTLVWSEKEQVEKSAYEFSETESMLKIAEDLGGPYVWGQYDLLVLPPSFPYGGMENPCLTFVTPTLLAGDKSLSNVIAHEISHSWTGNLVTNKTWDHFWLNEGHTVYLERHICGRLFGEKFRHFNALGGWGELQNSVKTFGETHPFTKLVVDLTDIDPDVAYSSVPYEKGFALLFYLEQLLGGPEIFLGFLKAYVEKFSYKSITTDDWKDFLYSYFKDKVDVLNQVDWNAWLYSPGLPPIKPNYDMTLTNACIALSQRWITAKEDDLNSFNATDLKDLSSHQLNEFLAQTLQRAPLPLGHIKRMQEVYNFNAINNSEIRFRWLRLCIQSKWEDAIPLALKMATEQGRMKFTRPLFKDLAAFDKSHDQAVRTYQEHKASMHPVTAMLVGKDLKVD
Description: LTA4H Enzyme assay (peptidase, Arg-AMC cleavage). Type of experiment: biochemical. As to conditions: LTA4H enzyme 1 nM, Arg-AMC substrate 50 μM, room temperature 1 h, fluorescence 380/460 nm. In short, it runs like this:
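Human LTA4H (1 nM final) incubated with compound and Arg-AMC (50 μM final) in 50 mM Tris-HCl pH 7.5, 100 mM KCl, 0.5% BSA, 1 h at room temperature. Product read as AMC fluorescence (ex 380/em 460 nm); IC50 reported.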

Turning to `CC(=O)N1CCN(Cc2ccc3cc(Oc4ccc(-c5ccn[nH]5)cn4)ccc3n2)[C@H](CO)C1` [Example 42, 1-((S)-3-Hydroxymethyl-4-{6-[5-(2H-pyrazol-3-yl)-pyridin-2-yloxy]-quinolin-2-ylmethyl}-piperazin-1-yl)-ethanone], the IC50 in experiment [1] came to 360 nM; on human LTA4 hydrolase, 0.88 nM.
For `CC(=O)N1CCN(Cc2cnc3cc(Oc4ccc(-c5ccn[nH]5)cc4)ccc3n2)CC1` [Example 241, 1-(4-{6-[4-(2H-Pyrazol-3-yl)-phenoxy]-quinoxalin-2-ylmethyl}-piperazin-1-yl)-ethanone] the same measures were 980 nM and 3.5 nM.
For `c1cc(-c2ccc(Oc3ccc4cc(CN5CCOCC5)nn4c3)cc2)[nH]n1` [Example 14, 2-morpholin-4-ylmethyl-6-[4-(2H-pyrazol-3-yl)-phenoxy]-pyrazolo[1,5-a]pyridine] the same measures were 310 nM and 1.2 nM.
For `FC(F)(F)C1CCN(Cc2nc3cc(Oc4ccc(-c5ccn[nH]5)cc4)ccc3[nH]2)C1` (stereo not drawn) [Example 196, 5-[4-(2H-Pyrazol-3-yl)-phenoxy]-2-(3-trifluoromethyl-pyrrolidin-1-ylmethyl}-1H-benzoimidazole] the same measures were 180 nM and 0.17 nM.
As for `COCC(=O)N1CCN(Cc2ccc3cc(Oc4ccc(-c5ccn[nH]5)cn4)ccc3c2)CC1` [Example 1, 2-Methoxy-1-(4-{6-[5-(2H-pyrazol-3-yl)-pyridin-2-yloxy]-naphthalen-2-ylmethyl}-piperazin-1-yl)-ethanone], the IC50 in experiment [1] came out at 180 nM; on human LTA4 hydrolase, 0.63 nM.
For `c1cc(-c2ccc(Oc3ccc4nc(CNCCC5CCOCC5)ccc4c3)nc2)[nH]n1` [Example 214, {6-[5-(2H-Pyrazol-3-yl)-pyridin-2-yloxy]-quinolin-2-ylmethyl}-[2-(tetrahydro-pyran-4-yl)-ethyl]-amine] the same measures were 400 nM and 2.5 nM.
For `CN(Cc1nc2cc(Oc3ccc(-c4ccn[nH]4)cc3)ccc2[nH]1)CC1CCCO1` (stereo not drawn) [Example 85, Methyl-{5-[4-(2H-pyrazol-3-yl)-phenoxy]-1H-benzoimidazol-2-ylmethyl}-(tetrahydro-furan-2-ylmethyl)-amine] the same measures were 120 nM and 0.24 nM.
For `C[C@@H](NCc1ccc2cc(Oc3ccc(-c4ccn[nH]4)cn3)ccc2n1)C(N)=O` [Example 34, (R)-2-({6-[5-(2H-Pyrazol-3-yl)-pyridin-2-yloxy]-quinolin-2-ylmethyl}-amino)-propionamide] the same measures were 800 nM and 5.7 nM.
In the case of `c1ccc(OC2CCN(Cc3ccc4cc(Oc5ccc(-c6ccn[nH]6)cn5)ccc4n3)CC2)nc1` [Example 215, 6-[5-(2H-Pyrazol-3-yl)-pyridin-2-yloxy]-2-[4-(pyridin-2-yloxy)-piperidin-1-ylmethyl]-quinoline], the IC50 in experiment [1] was found to be 680 nM; at human LTA4 hydrolase it was 5 nM.
On the same counts, the results for `c1cc(-c2ccc(Cc3ccc4nc(CN5CCOCC5)[nH]c4c3)cc2)[nH]n1` [Example 60, 2-Morpholin-4-ylmethyl-6-[4-(2H-pyrazol-3-yl)-benzyl]-1H-benzoimidazole] are 140 nM and 0.23 nM.
For `c1cc(-c2ccc(Oc3ccc4c(c3)OC(CNCC3CCOCC3)C4)cc2)[nH]n1` (stereo not drawn) [Example 185, {6-[4-(2H-Pyrazol-3-yl)-phenoxy]-2,3-dihydro-benzofuran-2-ylmethyl}-(tetrahydro-pyran-4-ylmethyl)-amine], the IC50 in experiment [1] turned out to be 150 nM; against human LTA4 hydrolase it was 0.45 nM.
On the same counts, the results for `NC(=O)[C@H]1[C@@H]2CN(Cc3ccc4cc(Oc5ccc(-c6ccn[nH]6)cn5)ccc4n3)C[C@@H]21` [Example 35, (1α,5α,6α)-3-{6-[5-(2H-Pyrazol-3-yl)-pyridin-2-yloxy]-quinolin-2-ylmethyl}-3-aza-bicyclo[3.1.0]hexane-6-carboxylic acid amide] are 220 nM and 0.49 nM.
On the same counts, the results for `O=C(O)C1CCN(Cc2cn3cc(Oc4ccc(-c5ccn[nH]5)cc4)ccc3n2)CC1` [Example 259, 1-{6-[4-(2H-Pyrazol-3-yl)-phenoxy]-imidazo[1,2-a]pyridin-2-ylmethyl}-piperidine-4-carboxylic acid] are 2100 nM and 0.12 nM.
For `COC(=O)c1ccc(CN2C[C@@H]3C[C@H]2CN3Cc2nc3cc(Oc4ccc(-c5ccn[nH]5)cc4)ccc3[nH]2)cc1` [Example 150, 4-((1S,4S)-5-{5-[4-(2H-Pyrazol-3-yl)-phenoxy]-1H-benzoimidazol-2-ylmethyl}-2,5-diaza-bicyclo[2.2.1]hept-2-ylmethyl)-benzoic acid methyl ester] the same measures were 300 nM and 0.32 nM.
Take `O=C(CO)N1CCN(Cc2ccc3cc(Oc4ccc(-c5ccn[nH]5)cn4)ccc3n2)CC1` [Example 27, 2-Hydroxy-1-(4-{6-[5-(2H-pyrazol-3-yl)-pyridin-2-yloxy]-quinolin-2-ylmethyl}-piperazin-1-yl)-ethanone]: the results for the IC50 (in experiment [1]; against human LTA4 hydrolase) were 150 nM and 0.72 nM, respectively.
On the same counts, the results for `c1cc(-c2ccc(Oc3ccc4c(cnn4CCN4CCCC4)c3)cc2)[nH]n1` [Example 75, 5-[4-(2H-pyrazol-3-yl)-phenoxy]-1-(2-pyrrolidin-1-yl-ethyl)-1H-indazole] are 84 nM and 0.24 nM.
For `CC(=O)N1CCN(Cc2coc3cc(Oc4ccc(-c5ccn[nH]5)cn4)ccc23)CC1` [Example 149, 1-(4-{6-[5-(2H-Pyrazol-3-yl)-pyridin-2-yloxy]-benzofuran-3-ylmethyl}-piperazin-1-yl)-ethanone] the same measures were 250 nM and 1.2 nM.
On the same counts, the results for `c1cc(-c2ccc(Oc3ccc4nc(CN5CCCC5)ccc4c3)cc2)[nH]n1` [Example 243, 6-[4-(2H-Pyrazol-3-yl)-phenoxy]-2-pyrrolidin-1-ylmethyl-quinoline] are 66 nM and 0.065 nM.
Turning to `COCC(=O)NC1CCN(CC2Cc3ccc(Oc4ccc(-c5ccn[nH]5)cc4)cc3O2)CC1` (stereo not drawn) [Example 170, 2-Methoxy-N-(1-{6-[4-(2H-pyrazol-3-yl)-phenoxy]-2,3-dihydro-benzofuran-2-ylmethyl}-piperidin-4-yl)-acetamide], the IC50 in experiment [1] was 120 nM; on human LTA4 hydrolase, 0.35 nM.
Regarding `COCCN(C)Cc1ccc2cc(Oc3ccc(-c4ccn[nH]4)cn3)ccc2n1` [Example 122, (2-Methoxy-ethyl)-methyl-{6-[5-(2H-pyrazol-3-yl)-pyridin-2-yloxy]-quinolin-2-ylmethyl}-amine], the IC50 amounted to 200 nM in experiment [1] and 0.97 nM against human LTA4 hydrolase.
As to `CC(=O)N[C@H]1C[C@H]2CC[C@@H](C1)N2CC1Cc2ccc(Oc3ccc(-c4ccn[nH]4)cc3)cc2O1` (stereo partly drawn) [Example 131, N-((endo)-8-{6-[4-(2H-Pyrazol-3-yl)-phenoxy]-2,3-dihydro-benzofuran-2-ylmethyl}-8-aza-bicyclo[3.2.1]oct-3-yl)-acetamide], the figures for the IC50 (in experiment [1]; against human LTA4 hydrolase) were 120 nM and 0.17 nM, respectively.
Regarding `c1cc(-c2ccc(Cc3ccc4nc(CN5CCOCC5)cn4c3)cc2)[nH]n1` [Example 252, 2-Morpholin-4-ylmethyl-6-[4-(2H-pyrazol-3-yl)-benzyl]-imidazo[1,2-a]pyridine], the IC50 in experiment [1] was 250 nM; against human LTA4 hydrolase, 0.93 nM.
On the same counts, the results for `CN(C)Cc1ccc2cc(Oc3ccc(-c4ccn[nH]4)cc3)ccc2n1` [Example 123, Dimethyl-{6-[4-(2H-pyrazol-3-yl)-phenoxy]-quinolin-2-ylmethyl}-amine] are 240 nM and 0.44 nM.
For `CC1(NC(=O)CO)CCN(Cc2ccc3cc(Oc4ccc(-c5ccn[nH]5)cn4)ccc3n2)CC1` [Example 46, 2-Hydroxy-N-(4-methyl-1-{6-[5-(2H-pyrazol-3-yl)-pyridin-2-yloxy]-quinolin-2-ylmethyl}-piperidin-4-yl)-acetamide] the same measures were 540 nM and 1.6 nM.
For the molecule `CC[C@@H](C)NCc1nc2cc(Oc3ccc(-c4ccn[nH]4)cc3)ccc2[nH]1` [Example 180, ((R)-sec-Butyl)-{5-[4-(2H-pyrazol-3-yl)-phenoxy]-1H-benzoimidazol-2-ylmethyl}-amine], the IC50 in experiment [1] is 150 nM; on human LTA4 hydrolase, 0.13 nM.
On the same counts, the results for `CC1(C)COCCN1Cc1nc2cc(Oc3ccc(-c4ccn[nH]4)cc3)ccc2[nH]1` [Example 182, 2-(3,3-Dimethyl-moprholin-4-ylmethyl)-5-[4-(2H-pyrazol-3-yl)-phenoxy]-1H-benzoimidazole] are 150 nM and 0.062 nM.
For `O=C(O)c1ccc(C2CCN(Cc3ccc4c(ccn4Cc4ccc(-c5ccn[nH]5)cc4)c3)CC2)cc1` [Example 124, 4-(1-{1-[4-(2H-pyrazol-3-yl)-benzyl]-1H-indol-5-ylmethyl}-piperidin-4-yl)-benzoic acid] the same measures were 130 nM and 0.061 nM.
